Calls of active or inactive are those of the source. The rule behind the calls is not given here.
Tests used:
[1] = system: SH-SY5Y; experiment: Cytotoxicity against H2O2 induced human neuroblastoma SH-SY5Y cells assessed as cell viability measured after 5 hrs by MTT assay; format: cell-based
[2] = system: SH-SY5Y; experiment: Neuroprotective activity against H2O2-induced human SH-SY5Y cell damage assessed as protective rate at 50 uM pretreated for 1 hr followed by H2O2 addition measured after 4 hrs by MTT assay (reference value: 68.2 +/- 1.34%); format: functional; conditions: time 5 hrs
[3] = system: SH-SY5Y; experiment: Inhibition of ROS production in H2O2-induced human SH-SY5Y cells at 50 uM pretreated for 1 hr followed by H2O2 addition measured after 4 hrs by DCFH-DA based flow cytometry; format: functional, cell-based; conditions: time 5.0 hrs
[4] = system: SH-SY5Y; experiment: Neuroprotective activity against H2O2-induced human SH-SY5Y cell death assessed as reversal of apoptosis at 50 uM pretreated for 1 hr followed by H2O2 addition measured after 4 hrs by Hoechst 33258 based fluorescence microscopy; format: functional; conditions: time 5.0 hrs
[5] = system: SH-SY5Y; experiment: Neuroprotective activity against H2O2-induced human SH-SY5Y cell death assessed as early apoptotic cells at 50 uM measured by Annexin V/PI double staining base flow cytometry analysis (reference value: 15.23%); format: functional, cell-based
[6] = system: SH-SY5Y; experiment: Neuroprotective activity against H2O2-induced human SH-SY5Y cell death assessed as late apoptotic cells at 50 uM measured by Annexin V/PI double staining base flow cytometry analysis (reference value: 7.78%); format: functional, cell-based
[7] = system: SH-SY5Y; experiment: Neuroprotective activity against H2O2-induced human SH-SY5Y cell death assessed as necrotic cells at 50 uM measured by Annexin V/PI double staining base flow cytometry analysis (reference value: 0.32%); format: functional, cell-based
[8] = system: SH-SY5Y; experiment: Neuroprotective activity against H2O2-induced human SH-SY5Y cell apoptosis assessed as PARP protein expression at 50 uM measured by Western blot analysis relative to control; format: functional, cell-based
[9] = system: SH-SY5Y; experiment: Neuroprotective activity against H2O2-induced human SH-SY5Y cell apoptosis assessed as caspase 3 protein expression at 50 uM measured by Western blot analysis relative to control; format: functional, cell-based
[10] = system: SH-SY5Y; experiment: Neuroprotective activity against H2O2-induced human SH-SY5Y cell apoptosis assessed as Bcl-2 protein expression at 50 uM measured by Western blot analysis relative to control; format: functional, cell-based
[11] = system: SH-SY5Y; experiment: Neuroprotective activity against H2O2-induced human SH-SY5Y cell death assessed as viable cells at 50 uM measured by Annexin V/PI double staining base flow cytometry analysis (reference value: 76.67%); format: functional; conditions: read-out: Activity
[12] = system: SH-SY5Y; experiment: Neuroprotective activity against H2O2-induced human SH-SY5Y cell apoptosis assessed as Bax protein expression at 50 uM measured by Western blot analysis relative to control; format: functional, cell-based

Compound: CCCCC(CC)C(=O)Nc1ccccc1C(=O)Nc1ccccc1C(=O)OC[C@@]12CC[C@H](OC)C34C(C(C[C@@H]31)[C@@]1(O)C[C@H](OC)C3C[C@@H]4[C@@H]1[C@H]3O)N(CC)C2 (stereo partly specified)
- Activity [1]: Non-Toxic
- Activity [2]: 6.5%

Compound: CCCCCC(=O)Nc1ccccc1C(=O)Nc1ccccc1C(=O)OC[C@@]12CC[C@H](OC)C34C(C(C[C@@H]31)[C@@]1(O)C[C@H](OC)C3C[C@@H]4[C@@H]1[C@H]3O)N(CC)C2
- Activity [1]: Non-Toxic
- Activity [2]: 22.5%

Compound: CCN1C[C@]2(COC(=O)c3ccccc3NC(=O)c3ccccc3NC(=O)C(C)(O)CC)CC[C@H](OC)C34C1C(C[C@@H]32)[C@@]1(O)C[C@H](OC)C2C[C@@H]4[C@@H]1[C@H]2OC(C)=O (stereo partly specified)
- Activity [1]: Non-Toxic
- Activity [2]: 62.1%

Compound: CCN1C[C@]2(COC(=O)c3ccccc3NC(=O)c3ccccc3NC(C)=O)CC[C@H](OC)C34C1C(C[C@@H]32)[C@@]1(O)C[C@H](OC)C2C[C@@H]4[C@@H]1[C@H]2OC(=O)c1ccccc1NC(=O)c1ccccc1NC(C)=O
- Activity [1]: Non-Toxic
- Activity [2]: 19.9%

Compound: CCCCC(=O)Nc1ccccc1C(=O)Nc1ccccc1C(=O)OC[C@@]12CC[C@H](OC)C34C(C(C[C@@H]31)[C@@]1(O)C[C@H](OC)C3C[C@@H]4[C@@H]1[C@H]3OC(=O)c1ccccc1NC(=O)c1ccccc1NC(=O)CCCC)N(CC)C2
- Activity [1]: Non-Toxic
- Activity [2]: 33%

Compound: CCN1C[C@]2(COC(=O)c3ccccc3NC(=O)c3ccccc3NC(=O)C(C)(C)O)CC[C@H](OC)C34C1C(C[C@@H]32)[C@@]1(O)C[C@H](OC)C2C[C@@H]4[C@@H]1[C@H]2OC(C)=O
- Activity [1]: Non-Toxic
- Activity [2]: 48.6%

Compound: CCN1C[C@]2(COC(=O)c3ccccc3NC(=O)c3ccccc3NC(=O)C(C)Cl)CC[C@H](OC)C34C1C(C[C@@H]32)[C@@]1(O)C[C@H](OC)C2C[C@@H]4[C@@H]1[C@H]2O (stereo partly specified)
- Activity [1]: Non-Toxic
- Activity [2]: 2.2%

Compound: CCN1C[C@]2(COC(=O)c3ccccc3NC(=O)c3ccccc3NC(=O)C(C)C)CC[C@H](OC)C34C1C(C[C@@H]32)[C@@]1(O)C[C@H](OC)C2C[C@@H]4[C@@H]1[C@H]2OC(=O)c1ccccc1NC(=O)c1ccccc1NC(=O)C(C)C
- Activity [1]: Non-Toxic
- Activity [2]: 5.5%

Compound: CCCC(=O)Nc1ccccc1C(=O)Nc1ccccc1C(=O)OC[C@@]12CC[C@H](OC)C34C(C(C[C@@H]31)[C@@]1(O)C[C@H](OC)C3C[C@@H]4[C@@H]1[C@H]3OC(=O)c1ccccc1NC(=O)c1ccccc1NC(=O)CCC)N(CC)C2
- Activity [1]: Non-Toxic
- Activity [2]: 21.3%

Compound: CCCCC(=O)Nc1ccccc1C(=O)Nc1ccccc1C(=O)OC[C@@]12CC[C@H](OC)C34C(C(C[C@@H]31)[C@@]1(O)C[C@H](OC)C3C[C@@H]4[C@@H]1[C@H]3O)N(CC)C2
- Activity [1]: Non-Toxic
- Activity [2]: 11.7%

Compound: CCO[C@]12C[C@H](OC)C3C[C@H]([C@@H]1[C@H]3O)C13C4C2C[C@@H]1[C@@](COC(=O)c1ccccc1NC(=O)c1ccccc1NC(=O)C(C)(C)O)(CC[C@@H]3OC)CN4CC
- Activity [1]: Non-Toxic
- Activity [2]: 58.6%

Compound: CCN1C[C@]2(COC(=O)c3ccccc3NC(=O)c3ccccc3NC(=O)c3ccccc3)CC[C@H](OC)C34C1C(C[C@@H]32)[C@@]1(O)C[C@H](OC)C2C[C@@H]4[C@@H]1[C@H]2OC(=O)c1ccccc1NC(=O)c1ccccc1NC(=O)c1ccccc1
- Activity [1]: Non-Toxic
- Activity [2]: 10.8%

Compound: CCN1C[C@]2(COC(=O)c3ccccc3NC(=O)c3ccccc3NC(=O)CC(C)C)CC[C@H](OC)C34C1C(C[C@@H]32)[C@@]1(O)C[C@H](OC)C2C[C@@H]4[C@@H]1[C@H]2OC(=O)c1ccccc1NC(=O)c1ccccc1NC(=O)CC(C)C
- Activity [1]: Non-Toxic
- Activity [2]: 13%

Compound: CCN1C[C@]2(COC(=O)c3ccccc3NC(=O)c3ccccc3NC(=O)C(C)(C)O)CC[C@H](OC)C34C1C(C[C@@H]32)[C@@]1(OC(C)=O)C[C@H](OC)C2C[C@@H]4[C@@H]1[C@H]2OC(C)=O
- Activity [1]: Non-Toxic
- Activity [2]: 54.2%

Compound: CCN1C[C@]2(COC(=O)c3ccccc3NC(=O)c3ccccc3NC(=O)CCCCl)CC[C@H](OC)C34C1C(C[C@@H]32)[C@@]1(O)C[C@H](OC)C2C[C@@H]4[C@@H]1[C@H]2O
- Activity [1]: Non-Toxic
- Activity [2]: 15.6%

Compound: CCN1C[C@]2(COC(=O)c3ccccc3NC(=O)c3ccccc3NC(=O)C(C)(C)O)CC[C@H](OC)C34C1C(C[C@@H]32)[C@@]1(O)C[C@H](OC)C2C[C@@H]4[C@@H]1[C@H]2O
- Activity [1]: Non-Toxic
- Activity [2]: 77.4%
- inhibition [3]: Active
- Activity [4]: Active
- Activity [5]: Active
- Activity [6]: Active
- Activity [7]: Active
- Activity [8]: Active
- Activity [9]: Active
- Activity [10]: Active
- viability at 50 µM [11]: 89.2%
- Activity [12]: Active

Compound: CCN1C[C@]2(COC(=O)c3ccccc3NC(=O)c3ccccc3NC(=O)C(Cl)(Cl)Cl)CC[C@H](OC)C34C1C(C[C@@H]32)[C@@]1(O)C[C@H](OC)C2C[C@@H]4[C@@H]1[C@H]2O
- Activity [1]: Non-Toxic
- Activity [2]: 14.5%

Compound: CCN1C[C@]2(COC(=O)c3ccccc3NC(=O)c3ccccc3NC(=O)C(C)(C)O)CC[C@H](OC)C34C1C(C[C@@H]32)[C@@]1(O)C[C@H](OC)C2C[C@@H]4[C@@H]1[C@H]2OC(=O)c1ccccc1NC(=O)c1ccccc1NC(=O)C(C)(C)O
- Activity [1]: Non-Toxic
- Activity [2]: 12.4%

From ChEMBL document CHEMBL4834406, “Isolation, Structure Elucidation, Semi-Synthesis, and Structural Modification of C19-Diterpenoid Alkaloids from Aconitum apetalum and Their Neuroprotective Activities” (J Nat Prod, 2021)
